Results on four molecules are retold here after US20070232650A1, “Malate salts, and polymorphs of (3S,5S)-7-[3-amino-5-methyl-piperidinyl]-1-cyclopropyl-1,4-dihydro-8-methoxy-4-oxo-3-quinolinecarboxylic acid” (The Procter & Gamble Company, priority 2006, published 2007).

Series [1] in a line: Solubility of isolated salt forms (salt screen).
Series [2] in a line: Chemical stability of salt forms. The format is physicochemical. The note with it: upon scale up. The source says:
Malate salts of 7-[3S-amino-5S-methyl-piperidinyl]-1-cyclopropyl-1,4-dihydro-8-methoxy-4-oxo-3-quinolinecarboxylic acid may be formed and isolated under practical manufacturing conditions. Use of the chiral malate for salt formation (as the racemic mix or the chirally pure forms) may in some instances assist with chiral purification of 7-[3S-amino-5S-methyl-piperidinyl]-1-cyclopropyl-1,4-dihydro-8-methoxy-4-oxo-3-quinolinecarboxylic acid. […] Using the same test methods, the anhydrate forms are shown to pick up moisture and spontaneously convert to the corresponding hydrated form upon exposure to humidity.

For the molecule `COc1c(N2C[C@@H](C)C[C@H](N)C2)ccc2c(=O)c(C(=O)O)cn(C3CC3)c12` (racemic) [DL-malate, hemi-hydrate, (3S,5S)-7-[3-amino-5-methyl-piperidinyl]-1-cyclopropyl-1,4-dihydro-8-methoxy-4-oxo-3-quinolinecarboxylic acid], the Solubility in series [1] (salt screen, Table 1) was 12 (hemi- mg/ml. On to `O=C(O)[C@H]1OC(O)[C@H](O)[C@@H](O)[C@@H]1O` (stereo partly drawn) [D-Glucuronate], for which the “Ease of Isolation (degradation)” value in series [2] is “Degradation”. In addition, the Solubility in series [1] (salt screen, Table 1) stood at 8 mg/mL. For the molecule `COc1c(N2C[C@@H](C)C[C@H](N)C2)ccc2c(=O)c(C(=O)O)cn(C3CC3)c12` [Freebase, (3S,5S)-7-[3-amino-5-methyl-piperidinyl]-1-cyclopropyl-1,4-dihydro-8-methoxy-4-oxo-3-quinolinecarboxylic acid], the Solubility in series [1] (water) was under 1 mg/mL. As to Fumarate, the Solubility in series [1] (salt screen, Table 1) came to 9 mg/mL.
